The values that follow come from patent US12643912B2, “Macrocyclic compounds, a process for their preparation and pharmaceutical compositions containing them” (LES LABORATOIRES SERVIER, priority 2020, dated 2026).

The subject of test [1] is Nrf2 (Keap1-NRF2 nuclear translocation). As to the kind of experiment: U2OS translocation assay (PathHunter U2OS Keap1-NRF2 Nuclear Translocation Cell Line). The test is classed as cell-based. The following applies: Homo sapiens, U2OS, 3 h, read-out: CELLULAR U2OS EC50 (nM), U2OS Keap1-NRF2 nuclear translocation cells, 3 h incubation, luminescence, normalized between 1% DMSO and 10 μM andrographolide. The essentials: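 Enzyme-fragment complementation read-out: luminescence after 60 min of detection reagent at room temperature, following a 3 h, 37° C compound exposure of engineered U2OS Keap1-NRF2 translocation cells (1% FBS medium). Signal scaled from 1% DMSO basal to 10 μM andrographolide maximum.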

Another test has as its target T1, Keap1 (A321-C624) (h) (Homo sapiens, UniProt Q14145).
T1 construct: His-Thromb-KEAP1(A321-C624) acquired from Novalix (batch PU-P01) was immobilized covalently by amine coupling; His tag (N); thrombin cleavage site (Thromb) (N); purchased Novalix batch PU-P01
As to the kind of experiment: Surface Plasmon Resonance binding assay to Kelch domain of KEAP1. Conditions: Biacore T200, 25° C., immobilized His-Thromb-KEAP1(A321-C624), single cycle kinetics, KD=kd/ka from 1:1 fit; read-out: Keap1 (A321-C624) (h) direct/SPR (KD). The essentials:
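His-Thromb-KEAP1(A321-C624) amine-coupled on CM5 chip to 1250 RU; amine blank reference. Run at 25° C in HEPES pH 7.4, 150 mM NaCl, 3 mM EDTA, 1 mM TCEP, 0.05% P20, 5% DMSO; 180 s association, 720 s dissociation, 50 μL/min. KD = kd/ka from 1:1 kinetic fit, double-referenced, DMSO solvent-corrected.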
On the technique in general: Surface plasmon resonance follows binding to a sensor surface in real time, without labels.

T1 sequence (Q14145 321-624): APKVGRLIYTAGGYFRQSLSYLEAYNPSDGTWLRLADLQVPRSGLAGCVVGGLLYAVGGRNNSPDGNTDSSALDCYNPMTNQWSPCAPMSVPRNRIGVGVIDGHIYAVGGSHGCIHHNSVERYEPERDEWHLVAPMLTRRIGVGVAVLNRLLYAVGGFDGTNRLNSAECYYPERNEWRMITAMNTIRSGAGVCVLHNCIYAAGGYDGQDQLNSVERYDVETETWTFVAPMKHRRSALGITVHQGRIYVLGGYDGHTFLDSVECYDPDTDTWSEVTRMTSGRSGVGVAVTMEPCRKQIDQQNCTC

A word on the EC50: it is the concentration that produces a half-maximal response. `Cc1ccc2cc1[C@@H](C)N1Cc3cc(ccc3OS1(=O)=O)OCCOCCCn1nnc3c(C)c(ccc31)[C@H]2CC(=O)O` [Example 26a, [(2R,8S)-2,4,33-Trimethyl-29,29-dioxo-20,23,28-trioxa-29λ^6-thia-1,14,15,16-tetraazahexacyclo[22.5.3.1^3,70.1^9,130.0^12,160.0^27,31]tetratriaconta-3(34),4,6,9(33),10,12,14,24,26,31-decaen-8-yl]acetic acid]: in test [1], the EC50 came to 11.3 nM. Also, on Keap1 (A321-C624) (h), the Kd came out at 3.4 nM.
For `Cc1ccc2cc1[C@@H](C)N1Cc3cc(ccc3OS1(=O)=O)OCCOCCCn1nnc3c(C)c(ccc31)[C@@H]2CC(=O)O` [Example 26b, [(2R,8R)-2,4,33-trimethyl-29,29-dioxo-20,23,28-trioxa-29λ^6-thia-1,14,15,16-tetraazahexacyclo[22.5.3.1^3,70.1^9,130.0^12,160.0^27,31]tetratriaconta-3(34),4,6,9(33),10,12,14,24,26,31-decaen-8-yl]acetic acid], in that order: 88.8 nM and 12.2 nM.
For `Cc1ccc2cc1[C@@H](C)N1Cc3cc(ccc3OS1(=O)=O)OCCCOCCn1nnc3c(C)c(ccc31)[C@@H]2CC(=O)O` [Example 27a, [(2R,8R)-2,4,33-Trimethyl-29,29-dioxo-19,23,28-trioxa-29λ^6-thia-1,14,15,16-tetraazahexacyclo[22.5.3.1^3,70.1^9,130.1^12,160.0^27,31]tetratriaconta-3(34),4,6,9(33),10,12,14,24,26,31-decaen-8-yl]acetic acid], in that order: 93.1 nM and 14.2 nM.
As for `Cc1ccc2cc1[C@@H](C)N1Cc3cc(ccc3OS1(=O)=O)OCCCOCCn1nnc3c(C)c(ccc31)[C@H]2CC(=O)O` [Example 27b, [(2R,8S)-2,4,33-trimethyl-29,29-dioxo-19,23,28-trioxa-29λ^6-thia-1,14,15,16-tetraazahexacyclo[22.5.3.1^3,70.1^9,130.0^12,160.0^27,31]tetratriaconta-3(34),4,6,9(33),10,12,14,24,26,31-decaen-8-yl]acetic acid], in test [1], the EC50 was 16.2 nM. Also, the Kd at Keap1 (A321-C624) (h) stood at 3.56 nM.
For `COc1ccc2cc1[C@@H](C)N1Cc3cc(ccc3OS1(=O)=O)OCCCCn1nnc3c(C)c(ccc31)[C@@H]2CC(=O)O` [Example 28a, [(2R,8R)-4-Methoxy-2,31-dimethyl-27,27-dioxo-21,26-dioxa-27λ^6-thia-1,14,15,16-tetraazahexacyclo[20.5.3.1^3,70.1^9,130.0^12,160.0^25,29]dotriaconta-3(32),4,6,9(31),10,12,14,22,24,29-decaen-8-yl]acetic acid], in that order: 611 nM and 23.4 nM.
The like results for `COc1ccc2cc1[C@@H](C)N1Cc3cc(ccc3OS1(=O)=O)OCCCCn1nnc3c(C)c(ccc31)[C@H]2CC(=O)O` [Example 28b, [(2R,8S)-4-methoxy-2,31-dimethyl-27,27-dioxo-21,26-dioxa-27λ^6-thia-1,14,15,16-tetraazahexacyclo[20.5.3.1^3,70.1^9,130.0^12,160.0^25,29]dotriaconta-3(32),4,6,9(31),10,12,14,22,24,29-decaen-8-yl]acetic acid] were, in that order, 15.3 nM and 3.25 nM.
Turning to `Cc1ccc2cc1[C@@H](C)N1Cc3cc(ccc3OS1(=O)=O)OCCN(C)CCCn1nnc3c(C)c(ccc31)[C@H]2CC(=O)O` [Example 34a, [(2R,8S)-2,4,20,33-tetramethyl-29,29-dioxo-23,28-dioxa-29λ^6-thia-1,14,15,16,20-pentaazahexacyclo[22.5.3.1^3,70.1^9,130.0^12,160.0^27,31]tetratriaconta-3(34),4,6,9(33),10,12,14,24,26,31-decaen-8-yl]acetic acid], in test [1], the EC50 is 2.66 nM. Moreover, the Kd on Keap1 (A321-C624) (h) was found to be 0.49 nM.
The like results for `Cc1ccc2cc1[C@@H](C)N1Cc3cc(ccc3OS1(=O)=O)OCCN(C)CCCn1nnc3c(C)c(ccc31)[C@@H]2CC(=O)O` [Example 34b, [(2R,8R)-2,4,20,33-tetramethyl-29,29-dioxo-23,28-dioxa-29λ^6-thia-1,14,15,16,20-pentaazahexacyclo[22.5.3.1^3,70.1^9,130.0^12,160.0^27,31]tetratriaconta-3(34),4,6,9(33),10,12,14,24,26,31-decaen-8-yl]acetic acid] were, in that order, 31.1 nM and 1.85 nM.
The like results for `COc1ccc2cc1[C@@H](C)N1Cc3cc(ccc3OS1(=O)=O)OCCCCCCn1nnc3c(C)c(ccc31)[C@H]2CC(=O)O` [Example 40a, [(2R,8S)-4-methoxy-2,33-dimethyl-29,29-dioxo-23,28-dioxa-29λ^6-thia-1,14,15,16-tetraazahexacyclo[22.5.3.1^3,70.1^9,130.0^12,160.0^27,31]tetratriaconta-3(34),4,6,9(33),10,12,14,24,26,31-decaen-8-yl]acetic acid] were, in that order, 9.72 nM and 5.51 nM.
For `COc1ccc2cc1[C@@H](C)N1Cc3cc(ccc3OS1(=O)=O)OCCCCCCn1nnc3c(C)c(ccc31)[C@@H]2CC(=O)O` [Example 40b, [(2R,8R)-4-methoxy-2,33-dimethyl-29,29-dioxo-23,28-dioxa-29λ^6-thia-1,14,15,16-tetraazahexacyclo[22.5.3.1^3,70.1^9,130.0^12,160.0^27,31]tetratriaconta-3(34),4,6,9(33),10,12,14,24,26,31-decaen-8-yl]acetic acid], in that order: 353 nM and 22.3 nM.
In the case of `Cc1ccc2cc1CN1Cc3cc(ccc3OS1(=O)=O)N(C)CCCCn1nnc3c(C)c(ccc31)C2CC(=O)O` (stereo not shown) [Example 42, [4,21,31-Trimethyl-27,27-dioxo-26-oxa-27λ^6-thia-1,14,15,16,21-pentaazahexacyclo[20.5.3.1^3,70.1^9,130.0^12,160.0^25,29]dotriaconta-3(32),4,6,9(31),10,12,14,22,24,29-decaen-8-yl]acetic acid], in test [1], the EC50 was determined as 21.4 nM. The Kd at Keap1 (A321-C624) (h) was 1.57 nM.
For `Cc1ccc2cc1CN1Cc3cc(ccc3OS1(=O)=O)N(C)C(=O)CCCn1nnc3c(C)c(ccc31)C2CC(=O)O` (stereo not shown) [Example 43, [4,21,31-Trimethyl-20,27,27-trioxo-26-oxa-27λ^6-thia-1,14,15,16,21-pentaazahexacyclo[20.5.3.1^3,70.1^9,130.0^12,160.0^25,29]dotriaconta-3(32),4,6,9(31),10,12,14,22,24,29-decaen-8-yl]acetic acid], in that order: 570 nM and 2.92 nM.
For `Cc1ccc2cc1CN1Cc3cc(ccc3OS1(=O)=O)OC[C@H](O)CCn1nnc3c(C)c(ccc31)C2CC(=O)O` (stereo partly drawn) [Example 44, [(19R)-19-hydroxy-4,31-dimethyl-27,27-dioxo-21,26-dioxa-27λ^6-thia-1,14,15,16-tetraazahexacyclo[20.5.3.1^3,70.1^9,130.0^12,160.0^25,29]dotriaconta-3(32),4,6,9(31),10,12,14,22,24,29-decaen-8-yl]acetic acid], in that order: 292 nM and 0.146 nM.
Take `Cc1ccc2cc1CN1Cc3cc(ccc3OS1(=O)=O)OCCCCn1nnc3c(C)c(cc(Cl)c31)[C@@H]2CC(=O)O` [Example 50, [(8R)-11-Chloro-4,31-dimethyl-27,27-dioxo-21,26-dioxa-27λ^6-thia-1,14,15,16-tetraazahexacyclo[20.5.3.1^3,70.1^9,130.0^12,160.0^25,29]dotriaconta-3(32),4,6,9(31),10,12,14,22,24,29-decaen-8-yl]acetic acid]: the 50% effective concentration (EC50) in test [1] worked out at 139 nM. Also, the Kd at Keap1 (A321-C624) (h) stood at 5.97 nM.
For `Cc1ccc2cc1CN1Cc3c(ccc(c3Cl)OCCCCn3nnc4c(C)c(cc(Cl)c43)[C@@H]2CC(=O)O)OS1(=O)=O` [Example 51, [(8R)-11,30-Dichloro-4,31-dimethyl-27,27-dioxo-21,26-dioxa-27λ^6-thia-1,14,15,16-tetraazahexacyclo[20.5.3.1^3,70.1^9,130.0^12,160.0^25,29]dotriaconta-3(32),4,6,9(31),10,12,14,22,24,29-decaen-8-yl]acetic acid], in that order: 103 nM and 2.03 nM.
The like results for `Cc1ccc2cc1CN1Cc3cc(c(Cl)cc3OS1(=O)=O)OCCCCn1nnc3c(C)c(cc(Cl)c31)[C@@H]2CC(=O)O` [Example 52, [(8R)-11,23-Dichloro-4,31-dimethyl-27,27-dioxo-21,26-dioxa-27λ^6-thia-1,14,15,16-tetraazahexacyclo[20.5.3.1^3,70.1^9,130.0^12,160.0^25,29]dotriaconta-3(32),4,6,9(31),10,12,14,22,24,29-decaen-8-yl]acetic acid] were, in that order, 180 nM and 8.86 nM.
For `[2H]C([2H])(C(=O)O)[C@@H]1c2ccc(C)c(c2)CN2Cc3cc(ccc3OS2(=O)=O)OCCCCn2nnc3c(C)c1ccc32` [Example 55a, [(8R)-4,31-Dimethyl-27,27-dioxo-21,26-dioxa-27λ^6-thia-1,14,15,16-tetraazahexacyclo[20.5.3.1^3,70.1^9,130.0^12,160.0^25,29]dotriaconta-3(32),4,6,9(31),10,12,14,22,24,29-decaen-8-yl](^2H2)acetic acid], in that order: 183 nM and 2 nM.
